PubChem BioAssay (NCI)
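Test compounds were applied to cells in 96-well plates for 48 hours at 5 doses. The concentration for full growth arrest is given as TGI.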

Legend:
Experiment in all cases: DTP human tumour cell line panel, 48 h
[1] = test system: 786-0 renal
[2] = test system: A549 NSCLC
[3] = test system: ACHN renal
[4] = test system: CAKI-1 renal
[5] = test system: CCRF-CEM leukemia
[6] = test system: COLO 205 colon
[7] = test system: DMS 114 small cell lung
[8] = test system: DMS 273 small cell lung
[9] = test system: HCC-2998 colon
[10] = test system: HCT-116 colon
[11] = test system: HCT-15 colon
[12] = test system: HT29 colon
[13] = test system: IGROV1 ovarian
[14] = test system: K-562 leukemia
[15] = test system: KM12 colon
[16] = test system: KM20L2 colon
[17] = test system: LOX IMVI melanoma
[18] = test system: LXFL 529 NSCLC
[19] = test system: M19-MEL melanoma
[20] = test system: MALME-3M melanoma
[21] = test system: MOLT-4 leukemia
[22] = test system: NCI-H23 lung
[23] = test system: NCI-H460 lung
[24] = test system: NCI-H522 lung
[25] = test system: OVCAR-4 ovarian
[26] = test system: OVCAR-5 ovarian
[27] = test system: OVCAR-8 ovarian
[28] = test system: RPMI-8226 leukemia
[29] = test system: RXF 393 renal
[30] = test system: SF-268 CNS
[31] = test system: SF-295 CNS
[32] = test system: SF-539 CNS
[33] = test system: SK-MEL-2 melanoma
[34] = test system: SK-MEL-28 melanoma
[35] = test system: SK-MEL-5 melanoma
[36] = test system: SN12C renal
[37] = test system: SNB-19 CNS
[38] = test system: SNB-78 CNS
[39] = test system: SR leukemia
[40] = test system: SW-620 colon
[41] = test system: TK-10 renal
[42] = test system: U251 CNS
[43] = test system: UACC-257 melanoma
[44] = test system: UACC-62 melanoma
[45] = test system: UO-31 renal
[46] = test system: XF 498 CNS
[47] = test system: DLD-1 colon
[48] = test system: EKVX NSCLC
[49] = test system: HL-60(TB) leukemia
[50] = test system: HOP-62 NSCLC
[51] = test system: HOP-92 NSCLC
[52] = test system: M14 melanoma
[53] = test system: NCI-H226 lung
[54] = test system: OVCAR-3 ovarian
[55] = test system: SK-OV-3 ovarian
[56] = test system: SNB-75 CNS
[57] = test system: A498 renal
[58] = test system: HOP-18 NSCLC

Work on `CC(C)c1cccc(C(C)C)c1NC(=O)C(=O)C(C(=O)c1ccccc1-c1ccccc1)C1OC(=O)c2ccccc21` (stereo unspecified) yielded a TGI [1] of 36.8 µM, a TGI [2] of over 100 µM and a TGI [3] of over 100 µM. It also gave a TGI [4] of 76.5 µM, a TGI [5] of 68.5 µM and a TGI [6] of 81.5 µM. It also gave a TGI [7] of 49.2 µM, a TGI [8] of 60 µM and a TGI [9] of 32.5 µM. The TGI [10] was 73.3 µM, the TGI [11] was 44.5 µM and the TGI [12] was 43.9 µM. The TGI [13] was 74.7 µM, the TGI [14] was 68.3 µM and the TGI [15] was 32.9 µM. For the same compound, the TGI [16] was 50.8 µM, the TGI [17] was 31.1 µM and the TGI [18] was 34.6 µM. It also gave a TGI [19] of 63.6 µM, a TGI [20] of 33.9 µM and a TGI [21] of 74.1 µM. For the same compound, the TGI [22] was 3.32 µM, the TGI [23] was 36.5 µM and the TGI [24] was 30.5 µM. For the same compound, the TGI [25] was 45.9 µM, the TGI [26] was 35.4 µM and the TGI [27] was 35 µM. For the same compound, the TGI [28] was over 100 µM, the TGI [29] was 27 µM and the TGI [30] was 61.5 µM. For the same compound, the TGI [31] was 37.6 µM, the TGI [32] was 27.9 µM and the TGI [33] was 32.1 µM. The TGI [34] was 71.9 µM, the TGI [35] was 29.5 µM and the TGI [36] was 49.9 µM. It also gave a TGI [37] of 40.1 µM, a TGI [38] of 73.2 µM and a TGI [39] of over 100 µM. The TGI [40] was 37.8 µM, the TGI [41] was 46.1 µM and the TGI [42] was 25.4 µM. For the same compound, the TGI [43] was 29.9 µM, the TGI [44] was 44.1 µM and the TGI [45] was 36.5 µM. For the same compound, the TGI [46] was 26 µM.
Work on `Cc1nc2c(n1CC(C)(C)C)C(=O)c1ccccc1C2=O` yielded a TGI [1] of over 100 µM, a TGI [2] of over 100 µM and a TGI [3] of over 100 µM. For the same compound, the TGI [5] was over 100 µM, the TGI [6] was over 100 µM and the TGI [47] was over 100 µM. It also gave a TGI [8] of over 100 µM, a TGI [48] of over 100 µM and a TGI [9] of over 100 µM. It also gave a TGI [10] of over 100 µM, a TGI [11] of over 100 µM and a TGI [49] of over 100 µM. For the same compound, the TGI [50] was over 100 µM, the TGI [51] was over 100 µM and the TGI [12] was over 100 µM. It also gave a TGI [13] of over 100 µM, a TGI [14] of over 100 µM and a TGI [15] of over 100 µM. For the same compound, the TGI [16] was over 100 µM, the TGI [17] was over 100 µM and the TGI [18] was over 100 µM. The TGI [52] was over 100 µM, the TGI [20] was over 100 µM and the TGI [21] was over 100 µM. For the same compound, the TGI [53] was over 100 µM, the TGI [22] was over 100 µM and the TGI [23] was over 100 µM. For the same compound, the TGI [24] was over 100 µM, the TGI [54] was over 100 µM and the TGI [25] was over 100 µM. It also gave a TGI [27] of over 100 µM, a TGI [29] of over 100 µM and a TGI [30] of over 100 µM. For the same compound, the TGI [31] was over 100 µM, the TGI [32] was over 100 µM and the TGI [33] was over 100 µM. It also gave a TGI [34] of over 100 µM, a TGI [35] of over 100 µM and a TGI [55] of over 100 µM. For the same compound, the TGI [36] was over 100 µM, the TGI [37] was over 100 µM and the TGI [56] was over 100 µM. The TGI [38] was over 100 µM, the TGI [39] was over 100 µM and the TGI [40] was over 100 µM. It also gave a TGI [41] of over 100 µM, a TGI [42] of over 100 µM and a TGI [43] of over 100 µM. For the same compound, the TGI [44] was over 100 µM, the TGI [45] was over 100 µM and the TGI [46] was over 100 µM.
With `C=C(C)C1CC2C(C)=C(OC(C)=O)C1n1c(=O)c3cc4ccccc4cc3c(=O)n12` (stereo unspecified) the TGI [1] was over 100 µM, the TGI [57] was over 100 µM and the TGI [2] was over 100 µM. The TGI [3] was over 100 µM, the TGI [4] was over 100 µM and the TGI [6] was over 100 µM. For the same compound, the TGI [47] was over 100 µM, the TGI [7] was over 100 µM and the TGI [8] was over 100 µM. For the same compound, the TGI [48] was over 100 µM, the TGI [9] was over 100 µM and the TGI [10] was over 100 µM. The TGI [11] was over 100 µM, the TGI [49] was over 36 µM and the TGI [58] was over 100 µM. For the same compound, the TGI [50] was over 100 µM, the TGI [51] was over 100 µM and the TGI [12] was over 100 µM. The TGI [13] was over 100 µM, the TGI [14] was over 100 µM and the TGI [15] was over 100 µM. For the same compound, the TGI [16] was over 100 µM, the TGI [17] was over 100 µM and the TGI [18] was over 100 µM. It also gave a TGI [52] of over 100 µM, a TGI [19] of over 100 µM and a TGI [20] of over 100 µM. The TGI [21] was over 100 µM, the TGI [53] was over 100 µM and the TGI [22] was over 100 µM. It also gave a TGI [23] of over 100 µM, a TGI [24] of over 100 µM and a TGI [54] of over 100 µM. For the same compound, the TGI [25] was over 100 µM, the TGI [26] was over 100 µM and the TGI [27] was over 100 µM. It also gave a TGI [28] of over 81.3 µM, a TGI [29] of over 90.9 µM and a TGI [30] of over 100 µM. The TGI [31] was over 100 µM, the TGI [32] was over 100 µM and the TGI [33] was over 100 µM. For the same compound, the TGI [34] was over 100 µM, the TGI [35] was over 100 µM and the TGI [55] was over 100 µM. It also gave a TGI [36] of over 100 µM, a TGI [37] of over 100 µM and a TGI [56] of over 85.5 µM. The TGI [38] was over 100 µM, the TGI [39] was over 93 µM and the TGI [40] was over 100 µM. For the same compound, the TGI [41] was over 100 µM, the TGI [42] was over 100 µM and the TGI [43] was over 100 µM. The TGI [44] was over 100 µM and the TGI [45] was over 100 µM.
`O=C1N[C@@H]2CCC[C@@H]2[C@@H]1c1ccc(Cl)cc1` showed a TGI [2] of over 100 µM, a TGI [4] of over 100 µM and a TGI [5] of over 100 µM. The TGI [6] was over 100 µM, the TGI [7] was over 100 µM and the TGI [8] was over 100 µM. For the same compound, the TGI [48] was over 100 µM, the TGI [11] was over 100 µM and the TGI [49] was over 100 µM. For the same compound, the TGI [12] was over 100 µM, the TGI [13] was over 100 µM and the TGI [14] was over 100 µM. For the same compound, the TGI [15] was over 100 µM, the TGI [17] was over 100 µM and the TGI [52] was over 100 µM. For the same compound, the TGI [19] was over 100 µM, the TGI [21] was over 100 µM and the TGI [53] was over 100 µM. It also gave a TGI [22] of over 100 µM, a TGI [24] of over 100 µM and a TGI [54] of over 100 µM. The TGI [27] was over 100 µM, the TGI [28] was over 100 µM and the TGI [29] was over 100 µM. It also gave a TGI [30] of over 100 µM, a TGI [31] of over 100 µM and a TGI [32] of over 100 µM. The TGI [34] was over 100 µM, the TGI [35] was over 100 µM and the TGI [55] was over 100 µM. The TGI [36] was over 100 µM, the TGI [37] was over 100 µM and the TGI [56] was over 100 µM. It also gave a TGI [40] of over 100 µM, a TGI [41] of over 100 µM and a TGI [43] of over 100 µM. It also gave a TGI [44] of over 100 µM and a TGI [45] of over 100 µM.
